Assay results published in publication PMC10300102, “In vivo inhibition of nuclear ACE2 translocation protects against SARS-CoV-2 replication and lung damage through epigenetic imprinting” (Nature Communications, 2023).
Where “and” joins values, the source holds several entries; their conditions need not be identical. Identical values can stand only once. Like-named read-outs stand apart in the source and are kept apart here. Where a SMILES comes first, the peptide text is derived from it. The star is where a group is joined. Myristoyl = CCCCCCCCCCCCCC(=O)*

Key:
H3K27ac in CD14+ PBMCs = experiment: H3K27ac nuclear fluorescence intensity and clock scan in CD14+ PBMCs; format: cell-based, human; conditions: CD14+ PBMCs of PB and PI patients
ACE2 = target: T1, ACE2 (Homo sapiens, UniProt Q9BYF1); experiment: ACE2 activity assay in Caco2 cell lysates; format: biochemical; conditions: Caco2 cells treated 50 µM 24 h, fluorometric kit, n = 3 technical replicates
T1 construct: endogenous in cells; host or cells: Caco2
T1 sequence (Q9BYF1 18-805): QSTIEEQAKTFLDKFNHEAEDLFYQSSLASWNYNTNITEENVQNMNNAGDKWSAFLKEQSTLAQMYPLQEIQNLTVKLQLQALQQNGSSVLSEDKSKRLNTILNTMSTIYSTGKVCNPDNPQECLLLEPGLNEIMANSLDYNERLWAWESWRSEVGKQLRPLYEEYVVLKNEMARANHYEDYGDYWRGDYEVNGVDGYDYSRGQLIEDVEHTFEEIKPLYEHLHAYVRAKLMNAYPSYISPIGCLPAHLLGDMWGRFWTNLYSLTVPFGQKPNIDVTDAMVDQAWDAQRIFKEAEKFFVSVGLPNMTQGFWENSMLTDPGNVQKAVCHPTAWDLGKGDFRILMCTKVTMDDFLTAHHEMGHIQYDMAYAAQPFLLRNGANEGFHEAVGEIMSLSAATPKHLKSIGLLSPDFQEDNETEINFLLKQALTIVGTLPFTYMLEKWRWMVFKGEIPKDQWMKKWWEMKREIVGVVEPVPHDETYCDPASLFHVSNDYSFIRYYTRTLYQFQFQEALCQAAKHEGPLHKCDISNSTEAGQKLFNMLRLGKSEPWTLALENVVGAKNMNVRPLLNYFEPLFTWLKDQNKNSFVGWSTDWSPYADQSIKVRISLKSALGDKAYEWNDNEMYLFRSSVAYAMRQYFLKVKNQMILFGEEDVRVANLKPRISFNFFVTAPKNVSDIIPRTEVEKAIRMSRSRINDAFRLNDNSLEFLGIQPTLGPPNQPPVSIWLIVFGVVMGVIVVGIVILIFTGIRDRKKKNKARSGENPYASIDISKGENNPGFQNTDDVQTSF
Method: Caco2 cells were seeded in T75 flasks using complete DMEM medium as above. Cells were treated with NACEi2 (50 µM) for 24 h. 1 × 10^6 cells were harvested, and the ACE2 activity assay was performed using the ACE2 Activity Assay Kit (Fluorometric) (ab273297, Abcam, Cambridge, UK) following the manufacturer’s instructions. ACE2 positive control with diluted ACE2 inhibitor was used as a negative control, and cell lysate with lysis buffer only was used as the background control. Fluorescence (Ex/Em = 320/420 nm) was measured in kinetic mode for 30 min (5 min intervals) at room temperature with a Biotek Synergy H4 Multimode Scanner.

SARS-CoV-2 [1] = tested on: SARS-CoV-2; parameters: species or system golden Syrian hamsters; conditions: hamster, in vivo
CD14+ monocytes = format: cell-based, human
[2] = tested on: NFACT1, C-Rel, ACE2, pPKC-zeta, Nurr1/Nur77, HDAC1 or NFKB p50; format: cell-based; conditions: Fig. 1d
SARS-CoV-2 [3] = format: in vivo, golden Syrian hamsters
[4] = parameters: species or system golden Syrian hamsters; conditions: hamster, in vivo
[5] = hamsters, escalating daily i.p. doses up to 100 mg/kg
PBMCs = format: cell-based, human; conditions: 10 µM 24 h
[6] = tested on: perforin-positive and CD3+ cells; format: in vivo, golden Syrian hamsters; conditions: hamster lungs 2 dpi; for %CD3+ / %Perforin+: individual animals, n=5
[7] = In vitro monkey plasma assay; format: in vitro ADME, cynomolgus monkey; conditions: for Concentration: single replicates
Method: Briefly, pooled frozen plasma was thawed at 37 °C prior to experiments. Plasma was centrifuged at 3720 x g for 5 min and any clots were removed. All blanks and working solutions were aliquoted on an Apricot automation workstation (2 μL/well of working solution (100 μM) with 98 μL plasma for NACE2i peptide (CP300638) and control compounds somatostatin acetate and procaine hydrochloride). All reaction plates containing mixtures of NACE2i, somatostatin acetate, and procaine hydrochloride and plasma were incubated at 37 °C in a water bath for 0, 15, 30, 60, 120, 240, and 360 min. Incubation was stopped with 4% H3PO4 and stop solution (200 ng/mL tolbutamide and 200 ng/mL labetalol in MeOH) to precipitate protein. Each plate was sealed and shaken for 20 min and then centrifuged at 3720 x g at 4 °C for 20 min. After centrifugation, the Apricot workstation was used to transfer 150 μL supernatant to each bioanalysis plate, which was then sealed and shaken for 10 min prior to LC-MS/MS analysis as per the manufacturer’s guidelines. LC: Shimadzu LC 30-AD, MS: QTRAP 6500 + , Autosampler: CTC PAL.

[8] = tested on: lung bronchiole and alveoli cell types; experiment: Cell type deconvolution analysis of NanoString DSP data; format: in vivo, golden Syrian hamsters; parameters: cell type proportion: macrophages: unit not given here; conditions: for cell type proportion: B / cell type proportion: NK / cell type proportion: T / cell type proportion: Treg / cell type proportion: endothelial / cell type proportion: fibroblasts / cell type proportion: mDCs / cell type proportion: macrophages / cell type proportion: mast / cell type proportion: monocytes / cell type proportion: neutrophils / cell type proportion: pDCs / cell type proportion: plasma: individual ROIs of H023 and H017
Method: Cell type deconvolution analysis was performed using R package SpatialDecon[68]. The Q3 normalized count matrix from NanoString DSP data and the safeTME[68] immune cell profile matrix were used as the query and reference input, respectively, to reveal cell type abundance within each of the selected ROIs. Cell type proportion for each selected ROI was visualized using a stack bar plot, where ROIs were grouped by tissue region (bronchioles vs. alveoli) and experimental condition (control and NACE2i-treated samples). In addition, given the non-normal distribution of the data, the Wilcoxon test was performed to compare each cell type proportion in controls against NACE2i-treated ROIs. The distribution of each cell type and p-value for the comparisons were visualized in box plots.

## CCCCCCCCCCCCCC(=O)N[C@H](C(=O)NCC(=O)N[C@H](C(=O)N[C@@H](CCCNC(=N)N)C(=O)N[C@@H](CC(=O)O)C(=O)N[C@@H](CCCNC(=N)N)C(=O)N[C@@H](CCCCN)C(=O)N[C@@H](CCCCN)C(=O)N[C@@H](CCCCN)C(=O)N[C@@H](CC(N)=O)C(=O)N[C@@H](CCCCN)C(=O)N[C@@H](C)C(=O)N[C@@H](CCCNC(=N)N)C(=O)N[C@@H](CO)C(=O)O)[C@@H](C)CC)[C@@H](C)O [NACE2i] (Myristoyl-TGIRDRKKKNKARS-OH)
H3K27ac in CD14+ PBMCs
  H3K7ac mark: successfully induced
ACE2
  ACE2 enzymatic activity: no impact
SARS-CoV-2 [1]
  lung infectious titers (TCID50): significantly reduced
CD14+ monocytes
  ACE2me expression in CD14+ monocytes: induced
  CD14+ACE2 NFI: 581.219 and 687.373 and 742.928 and 1006.4 and 850.738 and 975.203 and 677.429 and 828.535
  IL-6 expression in CD14+ monocytes: significantly decreased
  nuclear ACE2 expression in CD14+ monocytes: significantly decreased
  nuclear ACE2 expression in infected CD14+ monocytes: reduced
[2]
  selectivity for nuclear ACE2 versus other nuclear proteins of the importin pathway (NFI): specifically targets nuclear ACE2 and not other nuclear proteins
SARS-CoV-2 [3]; hamster, in vivo
  viral RNA in the lungs: significant reductions
SARS-CoV-2 [3]; n=7, 15 mg/kg
  decrease in lung viral RNA normalized to vehicle controls: 88%
SARS-CoV-2 [3]; n=8, 100 mg/kg
  decrease in lung viral RNA normalized to vehicle controls: 96%
[4]
  decrease in mean body weights: lower than vehicle controls
[5]
  body temperature: minimal changes in body temperature
  body weight: without a decrease in body weight
  discomfort: no observable discomfort
PBMCs
  IL-6 expression: reduced
  perforin expression: increased
[6]; i.p. NACE2i
  %CD3+: 7.228% and 6.247% and 7.351% and 8.086%
  %Perforin+: 14.1151% and 9.254% and 20.5795% and 12.5121%
[6]; i.v. NACE2i
  %CD3+: 6.775% and 4.046% and 7.435% and 7.728% and 7.891%
  %Perforin+: 8.914% and 7.676% and 12.1345% and 7.891% and 7.955%
[6]; i.v. or i.p.
  number of CD3+ cells: significantly increased
  proportion of perforin-positive cells: significantly increased
[7]; cynomolgus monkey plasma, time 0 min
  Concentration: 2270 nM and 2330 nM
[7]; cynomolgus monkey plasma, time 15 min
  Concentration: 1960 nM and 1620 nM
[7]; cynomolgus monkey plasma, time 30 min
  Concentration: 2060 nM and 2030 nM
[7]; cynomolgus monkey plasma, time 60 min
  Concentration: 1840 nM and 1540 nM
[7]; cynomolgus monkey plasma, time 120 min
  Concentration: 1740 nM and 1890 nM
[7]; cynomolgus monkey plasma, time 240 min
  Concentration: 1980 nM and 1920 nM
[7]; cynomolgus monkey plasma, time 360 min, n=2
  % Remaining: 76.7741%
[7]; cynomolgus monkey plasma, time 360 min
  Concentration: 1740 nM and 1850 nM
[7]; monkey, plasma (pooled, frozen), cynomolgus monkey plasma, time 15 min, n=2
  remaining at 0.25 h, 2 µM: 86.2%
[7]; monkey, plasma (pooled, frozen), cynomolgus monkey plasma, time 30 min, n=2
  remaining at 0.5 h, 2 µM: 90.6%
[7]; monkey, plasma (pooled, frozen), cynomolgus monkey plasma, time 60 min, n=2
  remaining at 1 h, 2 µM: 81.1%
[7]; monkey, plasma (pooled, frozen), cynomolgus monkey plasma, time 120 min, n=2
  remaining at 2 h, 2 µM: 76.6%
[7]; monkey, plasma (pooled, frozen), cynomolgus monkey plasma, time 240 min, n=2
  remaining at 4 h, 2 µM: 87.4%
[7]; pooled male cynomolgus monkey plasma, 2 µL of 100 µM working solution + 98 µL plasma, 37 °C, 0-360 min, LC-MS/MS, read-out: T1/2 in plasma
  half-life at 2 µM: 14.5 h
[7]; pooled male cynomolgus monkey plasma, 2 µL of 100 µM working solution + 98 µL plasma, 37 °C, 360 min, LC-MS/MS
  % remaining in plasma after 360 min incubation: 78%
[8]; Alveoli_NACE2i
  cell type proportion: B: 23.6847 and 32.4439 and 22.6247 and 29.4388 and 26.4374 and 25.048 and 27.5277 and 28.9903 and 27.2409 and 34.2892 and 28.9637 and 28.8675
  cell type proportion: NK: 17.1939 and 16.5847 and 20.9543 and 18.0108 and 22.2943 and 18.4617 and 20.087 and 18.6524 and 17.3616 and 14.6317 and 17.3619 and 17.6717
  cell type proportion: T: 16.6413 and 6.4009 and 15.4997 and 7.4175 and 8.025 and 5.045 and 6.1551 and 0 (2×) and 10.2833 and 5.973 and 3.9643
  cell type proportion: Treg: 0 (6×) and 1.553 and 8.1921 and 4.323 and 1 and 11.0807 and 5.06
  cell type proportion: endothelial: 28.1806 and 29.4553 and 29.583 and 29.8626 and 25.5168 and 33.6067 and 33.1024 and 36.1595 and 33.2493 and 33.1189 and 27.1461 and 36.2683
  cell type proportion: fibroblasts: 1.176 and 0.714 and 0.4633 and 0.8459 and 0.7981 and 0.4825 and 0.7109 and 0.76 and 1.098 and 0.6031 and 0.7444 and 1.019
  cell type proportion: mDCs: 0 (10×) and 0.2521 and 0.6557
  cell type proportion: macrophages: 5.388 and 3.326 and 1.773 and 2.095 and 8.024 and 0.205 and 7.196 and 5.143 and 2.92 and 3.5372 and 2.755 and 4.269
  cell type proportion: mast: 3.016 and 2.78 and 3.108 and 4.739 and 2.682 and 3.555 and 2.55 and 3.279 and 2.68 and 3.582 and 4.658 and 2.8819
  cell type proportion: monocytes: 0.03537 and 0 (11×)
  cell type proportion: neutrophils: 1.753 and 2.9035 and 1.994 and 3.2852 and 1.817 and 0.9729 and 2.361 and 0.2488 and 2.135 and 0.8335 and 0.7054 and 0.8644
  cell type proportion: pDCs: 0
  cell type proportion: plasma: 2.932 and 5.391 and 3.999 and 2.753 and 4.405 and 4.431 and 0.3105 and 2.193 and 2.376 and 2.431 and 2.621 and 3.0985
[8]; Bronchiole_NACE2i
  cell type proportion: B: 0 (4×) and 36.4151 and 8.716 and 15.9886 and 32.8168 and 11.1034 and 35.5652 and 45.4372 and 7.351
  cell type proportion: NK: 23.9964 and 22.2229 and 20.8895 and 32.9425 and 10.1656 and 15.473 and 6.835 and 10.348 and 25.7402 and 11.1678 and 15.6048 and 32.6588
  cell type proportion: T: 18.2436 and 18.4266 and 38.1438 and 0 (3×) and 5.53 and 45.4382 and 35.2758 and 13.8104 and 20.1994 and 29.1879
  cell type proportion: Treg: 0 (5×) and 21.836 and 33.8509 and 20.1505 and 4.85 and 5.947 and 12.5635 and 16.1845
  cell type proportion: endothelial: 16.4013 and 5.225 and 10.2999 and 2.966 and 17.2008 and 10.2265 and 6.188 and 5.584 and 8.968 and 11.6958 and 12.5764 and 14.8185
  cell type proportion: fibroblasts: 2.825 and 0.8593 and 2.185 and 1.129 and 1.957 and 1.105 and 1.635 and 0.3982 and 0.8306 and 1.6 and 2.113 and 2.3944
  cell type proportion: mDCs: 0 (10×) and 0.9775 and 1.142
  cell type proportion: macrophages: 5.529 and 0 and 0.1628 and 4.651 and 2.104 and 14.1819 and 29.1261 and 22.5397 and 28.7793 and 1.462 and 3.082 and 5.048
  cell type proportion: mast: 7.052 and 8.207 and 2.9723 and 2.068 and 4.233 and 1.198 and 2.171 and 3.272 and 0 and 1.897 and 1.1071 and 8.014
  cell type proportion: monocytes: 0 (11×) and 0.2701
  cell type proportion: neutrophils: 9.945 and 11.5606 and 12.9563 and 15.2877 and 1.922 and 0 and 1.136 and 5.344 and 0.585 and 0.3256 and 4.512 and 3.83
  cell type proportion: pDCs: 0.5957 and 4.06 and 4.2347 and 0 (6×) and 1.875 and 1.074 and 1.693
  cell type proportion: plasma: 15.4112 and 7.333 and 8.156 and 7.105 and 0.3226 and 1.788 and 1.644 and 1.037 and 2.72 and 1.151 and 2.026 and 6.866
[8]; infected hamsters 2 dpi
  NK cells in bronchiolar regions: increased
  macrophages in bronchiolar regions: significantly decreased
